# Data reported in US10961222B2, “Chemical compound of isocitrate dehydrogenase inhibitor, and application thereof” (NANJING SANHOME PHARMACEUTICAL CO., LTD., priority 2016, dated 2021).
# Experiments:
# [1] = test system: U87-MG (IDH2-R140Q) subcutaneous xenograft tumor; assay: Subcutaneous xenograft tumor caused by U87-MG (IDH2-R140Q) mutant cells in vivo: intratumor 2-HG; design: species or system BALB/c nude mice
# From the text: 1.2 Animals: BALB/c nude mice, 6-7 weeks old, female, 18-22 g, purchased from Nanjing Jinlaichang Company.
# U87-MG (IDH2-R140Q) cells and U87-MG cells (wild type) were expanded, and cells in logarithmic growth phase were used for tumor inoculation in vivo. 16 mice were inoculated subcutaneously into the right lower back of the body at an amount of 2×10^6 cells/mouse (the volume ratio of cell suspension to Matrigel was 1:0.8).
# The non-mutation control group was nude mice inoculated with U87-MG cells, and the test compound groups and vehicle control group were nude mice inoculated with U87-MG (IDH2-R140Q) cells.
# Each group was intragastrically administered with a corresponding concentration of the compound solution, the administration volume was 100 μL/10 g body weight, and the control group was administered the same volume of blank vehicle.
# After 10 days of administration, the mice were sacrificed. The tumors were exfoliated, homogenized, and the 2-HG content in the tumor was examined.
# The 2-HG concentration in the homogenate of each animal tumor in each group was determined by LC-MS/MS. The percentage (2-HG %) was calculated; the calculation formula is as follows 2-HG %=(2-HG concentration of administration group tumor−2-HG concentration of U87-MG control group tumor)/(2-HG concentration of U87−MG(IDH2-R140Q) control group tumor−2-HG concentration of U87-MG control group tumor)×100%.
# IDH2-R140Q mutant enzyme = target: T1, IDH2-R140Q mutant enzyme (Homo sapiens, UniProt P48735, R140Q); assay: Inhibitory activity of compounds on IDH2-R140Q enzyme in vitro (diaphorase/resazurin fluorescence); assay type: biochemical; conditions: IDH2-R140Q, pre-incubated 16 h with enzyme and NADPH, reaction 1 h with α-ketoglutarate; read-out: R140Q IC50
# T1 construct: purchased BPS 71100-1
# T1 sequence (P48735 40-452 R140Q): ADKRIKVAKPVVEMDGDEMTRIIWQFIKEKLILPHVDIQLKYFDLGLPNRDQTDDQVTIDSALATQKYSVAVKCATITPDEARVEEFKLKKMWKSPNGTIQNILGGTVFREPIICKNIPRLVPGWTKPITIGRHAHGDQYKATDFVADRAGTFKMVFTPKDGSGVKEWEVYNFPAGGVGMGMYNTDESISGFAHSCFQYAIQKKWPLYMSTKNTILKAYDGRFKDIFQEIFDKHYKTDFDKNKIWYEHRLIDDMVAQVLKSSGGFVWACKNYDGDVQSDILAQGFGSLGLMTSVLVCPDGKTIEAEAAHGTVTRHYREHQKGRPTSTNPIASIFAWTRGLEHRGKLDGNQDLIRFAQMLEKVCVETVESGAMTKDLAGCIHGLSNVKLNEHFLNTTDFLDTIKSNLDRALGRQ
# Protocol: Instrument: SpectraMax M3 Multi-Mode Microplate Reader, purchased from Molecular Devices.
# In a 96-well plate, 40 μL of reaction buffer containing 2× enzyme (IDH2-WT or IDH2-R140Q) and cofactor (NADP or NADPH) was added to each well of the compound group and the DMSO control group, and 40 μL of reaction buffer containing 2× cofactor (NADP or NADPH) was added to each well of the enzyme-free control group.
# 20 μL of reaction buffer containing 4× compound to be tested was added to each well of the compound group. The compound was pre-formulated into 200× mother liquor with 100% DMSO; in the final reaction system, the concentration of DMSO was 0.5%. 20 μL of reaction buffer containing DMSO was added to each well of the DMSO control group; in the final reaction system, the concentration of DMSO was 0.5%.
# The compound was mixed well with the enzyme and cofactor, and pre-incubated at room temperature for 16 h;
# 20 μL of reaction buffer containing 4× reaction substrate was added to each well. After mixed uniformly, the mixture was reacted at room temperature for 1 h.
# 3× termination and detection solution (it was prepared with reaction buffer, the final concentration of Diaphorase was 0.015 mg/mL, and the final concentration of Resazurin was 0.03 mM) was prepared. 40 μL of 3× termination and detection solution was added to each well of the enzyme reaction system. After mixed uniformly, the mixture was incubated at room temperature for 10 min;
# Fluorescence values of two wells were obtained and averaged and the activity rate (Activity %) was calculated. The calculation formula: Activity %=(Measured data−Subtract background)/(DMSO Control−Subtract background)×100, wherein “Measured data” is fluorescence value of the compound in the pre-incubated wells, “Subtract background” is the fluorescence value of the enzyme-free control wells, and “DMSO Control” is the fluorescence value in the DMSO pre-incubated wells. Data was processed by GraphPad Prism v5.0 software and fitted to obtain IC50.
# [2] = target: T2, U87-MG cell line of overexpressed mutant IDH2 (R140Q) (Homo sapiens, UniProt P48735, R140Q); assay: Cell activity in vitro: 2-HG in culture supernatant of U87-MG (IDH2-R140Q) cells by LC-MS/MS; assay type: cell-based; conditions: U87-MG (IDH2-R140Q) cells, 72 hours, 2-HG in supernatant; read-out: IC50 (2-HG remaining compared to untreated)
# T2 construct: expressed in transfected cells
# T2 sequence (P48735 40-452 R140Q): T1 sequence (P48735 40-452 R140Q)
# Protocol: 1.2 Cells: human glioblastoma cell line U87-MG, purchased from the American Type Culture Collection (ATCC);
# Cell recovery: U87-MG (IDH2-R140Q) cells and U87-MG cells were put into a 37° C. water bath, then transferred to 15 mL of pre-warmed medium, centrifuged at 1000 rpm for 5 minutes, and the medium was discarded. The cells were resuspended in 15 mL of fresh medium, transferred to a T75 flask and cultured in a 37° C. incubator with 5% CO2. After 24 hours, the medium was changed to fresh medium.
# Cell passage: The above-mentioned recovered cells were transferred to a 50 mL sterile centrifuge tube, centrifuged at 1000 rpm for 5 minutes, and the medium was discarded. The cells were resuspended evenly and counted. The cell density was adjusted appropriately in a 15 mL fresh medium, and then added to T75 culture flask. The culture flask was incubated in an incubator with 5% CO2 at 37° C.
# After cells grown to a relatively high density in the culture dish, the cells were trypsinized, resuspended in medium (MEM+10% FBS), and counted. After adjusting the cell concentration, the resuspended cells were seeded in a 96-well plate at 5×10^3 cells per well. After inoculation, the cells were cultured for 24 hours until the cells adhered. The medium were sucked out, and the medium containing gradient concentration of compound was added, 100 μL per well. The cells were further cultured for 72 hours. The s 20 μL of upernatant was taken and put into a 2 mL 96-well sample-processing plate. 480 μL of dilution solution was added and shaken for mixing, and then centrifuged at 4500 rpm for 5 minutes. 200 μL of supernatant was transferred for LC-MS/MS injection analysis.
# Column: Shim-pack XR-ODS 30L*2.0; mobile phase: acetonitrile-0.2% ammonia, 5 mM ammonium acetate aqueous solution; column temperature: 30° C.; flow rate: 0.4 mL/min; gradient elution conditions are as follows: […]
# Atmospheric […] chemical ionization (APCI) was used. Source parameters was set as follows: IonSpray Voltage/IS-4500V; auxiliary gas 1 (Ion Source Gas 1/GS 1, N2), 55Arb; auxiliary gas 2 (Ion Source Gas 2, N2), 55Arb; auxiliary gas heating temperature (Temperature/TEM), 500° C.; curtain gas/CUR, 25Arb; collision gas/CAD, N2, 8 Pa.
# Multi-ion reaction monitoring (MRM) in negative ion mode (Negative) was used. […] The internal standard (IS) MRM parameters: parent ion (Q 1 Mass), 178.0 Da; daughter ion (Q3 Mass), 149.0 Da; Decluster Potential (DP), −51V; collision voltage (Collision Energy/CE), −17 eV
# By determining the 2-HG content in the cell culture supernatant of each well using LC-MS/MS, the mutant enzyme activity (2-HG remaining compared to untreated %) was calculated. The calculation formula: 2-HG remaining compared to untreated %=(Measured 2-HG level—U87-MG control 2-HG level)/(Untreated 2-HG level—U87-MG control 2-HG level)×100. […] Data were processed by GraphPad Prism v5.0 software and fitted to obtain IC50.
SMILES,IC50 (IDH2-R140Q mutant enzyme),IC50 [2],"Intratumor 2-HG(%) after 10 days of administration ([1]; 6.25 mg/kg, intragastric, 10 days, mean, relative to U87-MG (IDH2-R140Q) control group)",ability of lowering 2-HG level compared with positive compound AG-221 ([1]; U87-MG (IDH2-R140Q) subcutaneous xenograft model)
"CCN(CC(C)(C)O)c1nc(Nc2ccnc(C(F)(F)F)c2)nc(-c2cccc(C(F)(F)F)n2)n1 [Example 31, 1-(Ethyl(4-(6-(trifluoromethyl)pyridin-2-yl)-6-((2-(trifluoromethyl)pyridin-4-yl)amino)-1,3,5-triazin-2-yl)amino)-2-methylpropan-2-ol]",21.3 nM,38.1 nM,–,–
"O[C@]1(C(F)(F)F)CCN(c2nc(Nc3ccnc(C(F)(F)F)c3)nc(-c3cccc(C(F)(F)F)n3)n2)C1 [Example 22A, (R)-4-(3-trifluoromethyl-3-hydroxypyrrolidin-1-yl)-6-(6-(trifluoromethyl)pyridin-2-yl)-N-(2-(trifluoromethyl)pyridin-4-yl)-1,3,5-triazin-2-amine]",–,–,–,substantially superior
"CC(Oc1nc(Nc2ccnc(C(F)(F)F)c2)nc(-c2cccc(C(F)(F)F)n2)n1)C(F)(F)F (stereo not drawn) [Example 44, 4-(6-(Trifluoromethyl)pyridin-2-yl)-N-(2-(trifluoromethyl)pyridin-4-yl)-6-((1,1,1-trifluoroisopropyl-2-yl)oxy)-1,3,5-triazin-2-amine]",8.8 nM,5.1 nM,–,–
CC1(O)CN(c2nc(Nc3ccnc(C(F)(F)F)c3)nc(-c3cccc(C(F)(F)F)n3)n2)C1 [Example 33],29.2 nM,10.2 nM,–,–
"CC(C)(C)ONc1nc(Nc2ccnc(C(F)(F)F)c2)nc(-c2cccc(C(F)(F)F)n2)n1 [Example 28, 4-(Tert-Butoxyamino)-6-(6-(trifluoromethyl)pyridin-2-yl)-N-(2-(trifluoromethyl)pyridin-4-yl)-1,3,5-triazin-2-amine]",12.2 nM,25.1 nM,–,–
"FC1(F)CN(c2nc(Nc3ccnc(C(F)(F)F)c3)nc(-c3cccc(C(F)(F)F)n3)n2)C1 [Example 35, 4-(3,3-Difluoroazetidin-1-yl)-6-(6-(trifluoromethyl)pyridin-2-yl)-N-(2-(trifluoromethyl)pyridin-4-yl)-1,3,5-triazin-2-amine]",8.3 nM,9.8 nM,–,–
OC1CN(c2nc(Nc3ccnc(C(F)(F)F)c3)nc(-c3cccc(C(F)(F)F)n3)n2)C1 [Example 32],26.5 nM,36.1 nM,–,–
CC(C)ONc1nc(Nc2ccnc(C(F)(F)F)c2)nc(-c2cccc(C(F)(F)F)n2)n1 [Example 27],12.5 nM,31.2 nM,–,–
"FC(F)(F)COc1nc(Nc2ccnc(C(F)(F)F)c2)nc(-c2cccc(C(F)(F)F)n2)n1 [Example 43, 4-(2,2,2-Trifluoroethoxy)-6-(6-(trifluoromethyl)pyridin-2-yl)-N-(2-(trifluoromethyl)pyridin-4-yl)-1,3,5-triazin-2-amine]",5.8 nM,9.6 nM,–,–
"FC(F)(F)c1cc(Nc2nc(-c3cccc(C(F)(F)F)n3)nc(N3CCOCC3)n2)ccn1 [Example 4, 4-Morpholinyl-6-(6-(trifluoromethyl)pyridin-2-yl)-N-(2-(trifluoromethyl)pyridin-4-yl)-1,3,5-triazin-2-amine]",15 nM,21 nM,–,–

# Now from value to compound, other results behind:
IC50 (IDH2-R140Q mutant enzyme),IC50 [2],SMILES,"Intratumor 2-HG(%) after 10 days of administration ([1]; 6.25 mg/kg, intragastric, 10 days, mean, relative to U87-MG (IDH2-R140Q) control group)",ability of lowering 2-HG level compared with positive compound AG-221 ([1]; U87-MG (IDH2-R140Q) subcutaneous xenograft model)
30 nM,–,"O[C@H]1CN(c2nc(Nc3ccnc(C(F)(F)F)c3)nc(-c3cccc(C(F)(F)F)n3)n2)C[C@@H]1F [Example 23, 4-((3S,4S)-3-hydroxy-4-fluoropyrrolidin-1-yl)-6-(6-(trifluoromethyl)pyridin-2-yl)-N-(2-(trifluoromethyl)pyridin-4-yl)-1,3,5-triazin-2-amine]",67%,–
16.1 nM,10.1 nM,"CC(C)(O)CCc1nc(Nc2ccnc(C(F)(F)F)c2)nc(-c2cccc(C(F)(F)F)n2)n1 [Example 41, 2-Methyl-4-(4-(6-(trifluoromethyl)pyridin-2-yl)-6-((2-(trifluoromethyl)pyridin-4-yl)amino)-1,3,5-triazin-2-yl)-3-butan-2-ol]",–,–
25.2 nM,59.1 nM,"OC1(C(F)(F)F)CCN(c2nc(Nc3ccnc(C(F)(F)F)c3)nc(-c3cccc(C(F)(F)F)n3)n2)CC1 [Example 38, 4-(Trifluoromethyl)-1-(4-(6-(trifluoromethyl)pyridin-2-yl)-6-((2-(trifluoromethyl)pyridin-4-yl)amino)-1,3,5-triazin-2-yl)piperidin-4-ol]",–,–
–,33.1 nM,"CC(C)(O)/C=C/c1nc(Nc2ccnc(C(F)(F)F)c2)nc(-c2cccc(C(F)(F)F)n2)n1 [Example 40, 2-Methyl-4-(4-(6-(trifluoromethyl)pyridin-2-yl)-6-((2-(trifluoromethyl)pyridin-4-yl)amino)-1,3,5-triazin-2-yl)-3-buten-2-ol]",–,–
5.1 nM,8.1 nM,"CC(C)Oc1nc(Nc2ccnc(C(F)(F)F)c2)nc(-c2cccc(C(F)(F)F)n2)n1 [Example 42, 4-Isopropoxy-6-(6-(trifluoromethyl)pyridin-2-yl)-N-(2-(trifluoromethyl)pyridin-4-yl)-1,3,5-triazin-2-amine]",–,–
5.8 nM,17.1 nM,CN(C)Nc1nc(Nc2ccnc(C(F)(F)F)c2)nc(-c2cccc(C(F)(F)F)n2)n1 [Example 29],–,–
